Assay: Stability of solid of type-G fenolamine crystal form (influencing factor experiment)
Assay type: physicochemical
Settings: open watch glass; 60° C., 40° C., and 25° C., relative humidity 90%±5%, illumination 4500 lx±500 lx; 10 days, sampled Days 0, 5, 10; powder X-ray diffraction and gas chromatography
Description: Type-G fenolamine crystal form samples were placed in open clean watch glasses, and kept under conditions of a high temperature of 60° C., a high temperature of 40° C., and 25° C., a relative humidity of 90%±5%, and illumination at 4500 lx±500 lx for 10 days, and samples were taken on Days 0, 5, and 10. Powder X-ray diffraction (with a resultant pattern consistent to that in FIG. 1) and gas chromatography means were used for analysis. […] All of the products from Example 1 were subjected to this test and achieved the same effect.

- stability of the crystal form under conditions of high temperature, high humidity and light illumination: stable
SMILES: COc1ccc(OC)c(/C(=C\c2ccc(O)c(OC)c2)C(=O)NCCc2ccc(O)cc2)c1 [type-G fenolamine crystal form, trans-2-(2,5-dimethoxyphenyl)-3-(4-hydroxy-3-methoxyphenyl)-N-(4-hydroxyphenylethyl)-acrylamide]
